Reference: patent publication US3954995A, “Mono-and disubstituted hydroxyguanidines in the treatment of depression” (E. I. Du Pont de Nemours and Company, priority 1974, dated 1976)
Where two headings read alike, the source gives them in different places.

Experiments:
[1] = tested on: tetrabenazine-induced sedation in mice; assay: Antitetrabenazine test: prevention of tetrabenazine-induced sedation and depression (exploratory activity and ptosis); type: in vivo, mice (Carworth CF1 S female); settings: Mus musculus, po, 1 h
Protocol: This mouse test is predictive of human antidepressant response (Everett, G. M., "The Dopa Response Potentiation Test and Its Use in Screening for Antidepressant Drugs", pp. 164-167 in "Antidepressant Drugs", Proceedings of the First International Symposium, S. Garattini and M. N. G. Dukes, eds., 1967).
Groups of 10 Carworth CF1 S female mice, 18-21 g each, were fasted 1.5 hours and were intubated with a hydroxyguanidine as antagonist to tetrabenazine at oral doses of 5, 25 and 125 mg/kg in 0.20 ml of 1% methyl cellulose (Methocel.) Thirty minutes later the mice were challenged with tetrabenazine, 32 mg/kg intraperitoneally (dissolved in 0.20 ml of 0.05M KCl at pH 2.0). One hour after the hydroxyguanidine compound (30 minutes after tetrabenzine) the mice were examined for signs of exploratory activity and ptosis (eye-lid closure). Normal exploratory activity (relief from sedation) was recorded when a mouse lifted by the tail from a group of 10 in a testing box and placed on a stainless steel testing box lid (12.5 inch × 8 inch × 0.33 inch mesh) either turned its head horizontally 30° or moved to the edge of the screen withi 10 seconds after being placed on the screen. Relief from ptosis was recorded when exactly 2 seconds after placing the mouse facing the observer, lid closure was less than 50% in both eyes.

[2] = tested on: tetrabenazine-induced sedation in mice; assay: as above; type: in vivo, mice (Carworth CF1 S female); settings: up to 81 mg/kg
[3] = tested as hydroxyguanidine HCl salt, tetrabenazine 32 mg/kg i.p., read-out: Antitetrabenazine ED 50, Exploratory
[4] = tested as hydroxyguanidine HCl salt, tetrabenazine 32 mg/kg i.p., read-out: Antitetrabenazine ED 50, Ptosis
[5] = tetrabenazine 32 mg/kg i.p. 30 min later, read 1 h after compound, read-out: Antitetrabenazine ED 50, Exploratory
[6] = tetrabenazine 32 mg/kg i.p. 30 min later, read 1 h after compound, read-out: Antitetrabenazine ED 50, Ptosis (dose which blocked ptosis in 50% of the mice)

| SMILES | ED50 [1, 3] [mg/kg] | ED50 [1, 4] [mg/kg] | ED50 [1, 5] [mg/kg] | ED50 [1, 6] [mg/kg] | Activity in the antitetrabenazine screen [2] |
| --- | --- | --- | --- | --- | --- |
| CN(C(N)=NO)c1ccccc1 [Example 1, 1-phenyl-1-methylhydroxyguanidine] | 9 | 1.1 | > 81 | 1.1 |  |
| CN(Cc1ccccc1)C(N)=NO [Example 2, 1-benzyl-1-methylhydroxyguanidine] | > 81 | 0.43 | 9 | 0.18 |  |
| CCN(Cc1ccccc1)C(N)=NO [Example 3, 1-benzyl-1-ethylhydroxyguanidine] |  |  | 9 | 0.39 |  |
| COc1ccc(CN(C)C(N)=NO)cc1 [Example 4, 1-p-methoxybenzyl-1-methylhydroxyguanidine] |  |  | > 81 | 59 |  |
| CN(Cc1ccc(F)cc1)C(N)=NO [Example 5, 1-p-fluorobenzyl-1-methylhydroxyguanidine] |  |  | > 81 | 8.1 |  |
| CN(Cc1ccc(Br)cc1)C(N)=NO [Example 6, 1-p-bromobenzyl-1-methylhydroxyguanidine] |  |  | > 81 | 17.4 |  |
| Cc1ccc(CN(C)C(N)=NO)cc1 [Example 7, 1-p-methylbenzyl-1-methylhydroxyguanidine] |  |  | > 81 | 23 |  |
| CN(Cc1ccc([N+](=O)[O-])cc1)C(N)=NO [Example 8, 1-p-nitrobenzyl-1-methylhydroxyguanidine] |  |  | > 81 | 47 |  |
| CN(Cc1ccc(Cl)c(Cl)c1)C(N)=NO [Example 9, 1-(3,4-dichlorobenzyl)-1-methylhydroxyguanidine] |  |  | > 81 | 4.8 |  |
| CN(Cc1ccc(Cl)cc1)C(N)=NO [Example 10, 1-p-chlorobenzyl-1-methylhydroxyguanidine] |  |  | > 81 | 10.8 |  |
| CN(C(N)=NO)c1ccc(Cl)cc1 [Example 11, 1-p-chlorophenyl-1-methylhydroxyguanidine] |  |  | 81 | 0.82 |  |
| CCN(C(N)=NO)c1ccccc1 [Example 12, 1-phenyl-1-ethylhydroxyguanidine] |  |  | 15.6 | 3 |  |
| Cc1ccc(N(C)C(N)=NO)cc1 [Example 13, 1-p-tolyl-1-methylhydroxyguanidine] |  |  | 3 | 0.88 |  |
| COc1ccc(N(C)C(N)=NO)cc1 [Example 14, 1-p-methoxyphenyl-1-methylhydroxyguanidine] |  |  | > 81 | 20.5 |  |
| CCCN(C(N)=NO)c1ccccc1 [Example 17, 1-phenyl-1-n-propylhydroxyguanidine] |  |  | > 81 | 20 |  |
| CN(C(N)=NO)C1CCCCC1 [Example 18, 1-cyclohexyl-1-methylhydroxyguanidine] |  |  | > 81 | 9 |  |
| NC(=NO)NCc1ccccc1 [Example 19, 1-benzylhydroxyguanidine] | > 81 | 12.5 |  |  |  |
| CN(Cc1cccc(Cl)c1)C(N)=NO [Example 20, 1-m-chlorobenzyl-1-methylhydroxyguanidine] |  |  | > 81 | 0.4 |  |
| CN(Cc1cccc([N+](=O)[O-])c1)C(N)=NO [Example 21, 1-m-nitrobenzyl-1-methylhydroxyguanidine] |  |  | > 81 | 66 |  |
| CN(C(N)=NO)c1cccc(Cl)c1 [Example 22, 1-m-chlorophenyl-1-methylhydroxyguanidine] |  |  | > 81 | 0.7 |  |
| Cc1ccc(N(C)C(N)=NO)cc1C [Example 23, 1-(3,4-xylyl)-1-methylhydroxyguanidine] |  |  | > 81 | 4.9 |  |
| Cc1cccc(N(C)C(N)=NO)c1 [Example 24, 1-m-tolyl-1-methylhydroxyguanidine] |  |  |  | 0.4 |  |
| CN(C(N)=NO)C1CCCC1 [Example 25, 1-cyclopentyl-1-methylhydroxyguanidine] | > 81 | 3 |  |  |  |
| CNC(=NO)Nc1ccccc1 [Example 26, 1-Phenyl-3-methyl-2-hydroxyguanidine] |  |  | > 81 | 12.2 |  |
| CNC(=NO)NCc1ccccc1 [Example 27, 1-Benzyl-3-methyl-2-hydroxyguanidine] |  |  |  |  | inactive |
